The values that follow come from patent publication US7241782B1, “Polymorph V of torasemide” (PLIVA, farmaceutska industrija, dionicko drustvo, priority 2000, dated 2007).

Series [1] is described as follows: Stability at milling and pressing under normal storage conditions. The series is classed as physicochemical.
Series [2] can be described thus: Release of the active substance in water (USP 24). The following applies: for Released torasemide: water, USP 24, 37° C., 50 rpm, 1000 ml. The series is classed as physicochemical. Here is the method:
This makes the novel polymorph V of torasemide suitable for the preparation of pharmaceutical preparations having immediate or prolonged action. The novel polymorph V of torasemide obtained according to Example 1 of the present invention was subjected to testing the release of the active substance in water at the temperature of 37° C. [table]

Take `Cc1cccc(Nc2ccncc2S(=O)(=O)NC(=O)NC(C)C)c1` [novel polymorph V of torasemide, N-(1-methylethylaminocarbonyl)-4-(3-methyl-phenylamino)-3-pyridinesulfonamide]: the “Stability of the crystal form (no transformation into modifications I, II, III or amorphous)” value in series [1] is “stable at milling and pressing”. Besides, the “Release in comparison with the release profile of known crystalline torasemide modifications” value in series [2] (in water (USP 24), same medium) is listed as “slower release”. The Released torasemide in series [2] (time 0 min) is given as 0%; in series [2] (time 15 min), 11.3%; in series [2] (time 30 min), 20.5%; in series [2] (time 45 min) it was 26.0%; in series [2] (time 60 min) it was 30.0%; in series [2] (time 90 min), 36.0%. For the same molecule, the Released torasemide in series [2] (time 120 min) stood at 40.7%.
